The source of these data is patent US11752117B2, “Methods and compositions for diagnosing and treating glaucoma” (priority 2017, dated 2023).

Assay [1] deals with rabbits. Description: Effect of KATP channel blockers and openers on intraocular pressure in rabbits. The class given is in vivo. To be noted: 800 μg of blockers, within 1 hour. From the text:
Tolbutamide, a well-known and world-wide clinically approved drug to treat Type II diabetes, was used as the prototype blocker of the KATP channel. […] Tolbutamide solution decreased IOP not only in glaucomatous patients, but also in patients with elevated IOP after cataract surgery.

Assay [2] relates to sulfonylurea receptor in trabecular meshwork cells. As to the kind of experiment: 3H-glibenclamide binding and displacement, bovine trabecular meshwork cells. To be noted: on ice, 2 hrs incubation. As for the experimental part:
FIG. 1 depicts, in accordance with embodiments herein, binding of ^3H-glibenclamide to bovine trabecular meshwork cells (2.5×10^5 per 0.5 ml of reaction mixture) at various concentrations of ligand. Red: non-specific binding; green: specific binding. Shown is mean±SD.
FIG. 2 depicts, in accordance with embodiments herein, displacement of ^3H-glibenclamide bound to trabecular meshwork cells (green) and RIN-m5F cells (red) by tolbutamide.
Non-specific binding was determined as the residual binding in the presence of 20 μM non-labeled glibenclamide. After 2 hrs incubation, ^3H-bound glibenclamide was separated from free ^3H-glibenclamide on Whatman GF/F filters soaked in incubation buffer. Specific binding as calculated as the difference between binding in the absence and presence of non-labeled […] glibenclamide (FIG. 1).

Assay [3] deals with human trabecular meshwork cell. Description: 86Rb efflux from human trabecular meshwork cells. In kind it is cell-based. From the text:
FIG. 3 depicts, in accordance with embodiments herein, effect of glybenclamide on the efflux of ^86Rb from human trabecular meshwork cell.
FIG. 4 depicts, in accordance with embodiments herein, effect of chlorpromazine on the efflux of ^86Rb from human trabecular meshwork cell.

With `Cc1ccc(S(=O)(=O)NC(=O)NN2CCCCCC2)cc1` [tolazamide], in assay [1], the “effect on intraocular pressure” value is listed as “decreased IOP”.

For `COc1ccc(Cl)cc1C(=O)NCCc1ccc(S(=O)(=O)NC(=O)NC2CCCCC2)cc1` [Glybenclamide, glibenclamide], the “binding of 3H-glibenclamide to trabecular meshwork cells” value in assay [2] is on record as “have a receptor for glybenclamide”. For the same molecule, the “potassium efflux from trabecular meshwork cells as indicated by 86Rubidium efflux” value in assay [3] was “inhibit potassium efflux”. In addition, the inhibition (commonly the relative decrease from the control value, in per cent) at 0.01 µM in assay [3] (Homo sapiens, at 10 nM, dose dependent) is 50%. Also, in assay [1], the “effect on intraocular pressure” value is reported as “decreased IOP”.

Turning to `CC1=NS(=O)(=O)c2cc(Cl)ccc2N1` [diazoxide], the “effect on intraocular pressure” value in assay [1] is recorded as “increased IOP significantly”.

As for `CN(C)CCCN1c2ccccc2Sc2ccc(Cl)cc21` [Chlorpromazine, chlorpromazine], the “potassium efflux from trabecular meshwork cells as indicated by 86Rubidium efflux” value in assay [3] was “inhibit potassium efflux”. In assay [3] (Homo sapiens, at 1 μM, dose dependent), this molecule had an inhibition at 1 µM of 20%.

Turning to `CCCNC(=O)NS(=O)(=O)c1ccc(Cl)cc1` [chlorpropanamide], the “effect on intraocular pressure” value in assay [1] is “decreased IOP”.
